Laboratory results taken from patent US20230381291A1, “TUMOR-ASSOCIATED PEPTIDES AND USES THEREOF” (HUMANITAS MIRASOLE S.P.A., priority 2020, published 2023).
Where a SMILES comes first, the peptide text is derived from it. The star is where a group is joined. Cbz = O=C(OCc1ccccc1)*

How the values were obtained:
Type in all cases: cell-based, human
[1] = test system: Salmonella-infected 624-38 melanoma cells; assay: HLA-A*02:01-peptide binding assay on T2 cells (peptide release into supernatant); conditions: 624-38 cells treated with inhibitor; 4μ8c 10 μM, MG132 20 μM, Epoxomycin 500 nM
Protocol: (§1) In order to elucidate the Salmonella mechanism of action, the present inventors employed several inhibitors in their in vitro experiments, including: Heptanol (Sigma, 1 mM), hemichannel blocker; proteasome inhibitors: MG132 (Sigma, 20 μM) and Epoxomycin (Sigma, 500 nM); UPR-inhibitor 4μ8c (10 μM).
Single bacterial colonies were grown overnight and restarted the next day to reach an absorbance at 600 nm of 0.6 corresponding to 0.6×10^9 colony-forming units (CFUs)/ml. Murine and human melanoma cells were incubated with bacteria for 90 minutes, at a cell-to-bacteria ratio of 1:50, in the appropriate medium added with L-Glutamine without antibiotics. Cells were washed with medium and incubated in medium supplemented with gentamicin ([…]) for 18 hours to kill extracellular bacteria. At the end of the incubation cells were harvested and then lysed for protein analysis while supernatant was collected and filtered through 0.22 μm filter eliminate potentially still alive bacteria.
To assess peptides enrichment in the supernatant from tumor cell cultures following Salmonella treatment, T2 cells were incubated overnight at 37° C. at 2×10^5 cells/well in serum-free RPMI medium either with 100 μL of supernatant or with Mart-126-35 peptide (1 μM and 10 μM) as a positive control. […]

[2] = test system: Salmonella-infected 624-38 melanoma cells; assay: IFN-gamma release by CTL-Vax on Thp1 loaded with conditioned supernatant; conditions: supernatant of inhibitor-treated Salmonella-infected 624-38 loaded on Thp1, ratio 1:1, 72 hours
Protocol: as §1
(§2) Human acute monocytic leukemia Thp1 cell line was loaded either with antigens at different concentration (20 uM-1.25 uM) or with conditioned medium and used to stimulate CTL-Vax (ratio 1:1). Cells supernatant was collected after 72 hours and IFN-gamma production was measured by ELISA (R&D). IFN-gamma released by CTLs co-cultured with unloaded Thp1 (spontaneous IFN-gamma release) was subtracted from IFN measured upon Ag-stimulation. Specificity of the activation was further assessed using an HLA-I pan blocker as control (10 ug/ml, Clone W6/32).

CTL-Vax = assay: IFN-gamma assay for peptide recognition by CTLs (peptide-loaded Thp1, ELISA); conditions: synthesized peptides loaded on Thp1 at 20 μM-1.25 μM, ratio 1:1, 72 hours
Protocol: as §2

Molecule	peptide release prompted by Salmonella infection (HLA-A*02:01 MFI on T2 cells) [1]	CTL-Vax activation upon supernatant stimulation (IFN-gamma release) [2]	IFN-gamma production by CTL-VAX (CTL-Vax)
Cc1cc(=O)oc2c(C=O)c(O)ccc12 [4μ8c]	significantly impaired peptide release	lower activation	
TMA747-44: candidate peptide from melanoma secretome that did not induce IFN-gamma production by CTL-VAX (AAGKGPLATGGIKKSGKK)			all except TMA747-44 (SEQ ID NO. 5) were able to induce IFN-gamma production
CC(C)C[C@@H](C=O)NC(=O)[C@H](CC(C)C)NC(=O)[C@H](CC(C)C)NC(=O)OCc1ccccc1 [MG132] (Cbz-Leu-Leu-Leu-aldehyde)	affected	affected	
